This is an account of results in doi:10.1101/2021.05.10.443505v2 (biorxiv, 2021).

The target of this assay is T1, human ID2 protein (Homo sapiens, UniProt Q02363).
T1 sequence (Q02363 1-134): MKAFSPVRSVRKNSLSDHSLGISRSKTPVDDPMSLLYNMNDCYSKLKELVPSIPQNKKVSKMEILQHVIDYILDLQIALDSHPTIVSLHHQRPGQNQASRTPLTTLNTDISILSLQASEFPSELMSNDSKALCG
The experiment in a line: SPR. The assay is classed as binding.

A word on the Kd: it is the concentration at which binding is half-saturated. `O=C(CC1(O)C(=O)N(Cc2cccc(Cl)c2)c2ccccc21)c1ccccn1` (stereo not shown) [AK-778-XXMU] returned a Kd of 129 nM.
